How the values were obtained:
[1] = tested on: Mre11^myc yeast strains; assay: MMS and CPT sensitivity assay (spotted serial dilutions); assay type: cell-based, Saccharomyces cerevisiae; details: ten-fold serial dilutions on YPD; for Sensitivity of mre11-ΔC49 mutant (in words): mre11-ΔC49 strain; for Sensitivity of mre11-ΔIDR mutant (in words): mre11-ΔIDR strain compared with wild type
Procedure: (§1) Following standard protocols, strains were patched on YPG plates, mated and streaked on YPD plates, and selected diploid colonies grown in liquid YPD at 30 °C, 250 rpm, overnight. For meiotic synchronization, diploid cultures grown overnight in YPD were transferred to YPA (1% yeast extract, 2% peptone, 1% potassium acetate) at OD600 0.2 and grown for 12–14 h at 30 °C, 250 rpm. Once the cultures reached OD600 between 1.2–1.6, cells were washed once with prewarmed sterile water and immediately transferred to sporulation medium supplemented with amino acids (320 µL amino acid complementation media for 100 mL of sporulation media (SPM)) and were kept shaking at 30 °C, 250 rpm during the entire meiotic time-course. For MMS and CPT (Sigma) sensitivity assays, serial dilutions of overnight cultures were spotted on freshly prepared YPD-MMS or YPD-CPT plates containing the indicated percentage of MMS or CPT, respectively. Plates were grown for two days at 30 °C. For immunofluorescence of vegetatively growing cells, overnight cultures were refreshed by diluting to OD600 0.2 and grown for 3-4 hours to reach OD600 1.2–1.4 before subjecting to MMS or MMS followed by 5% 1,6-hexanediol treatment. For 5% 1,6-hexanediol treatment, cells were first converted to spheroplasts and then treated with 5% 1,6-hexanediol for 4-5 min. Spheroplasts were then immediately washed, lysed, and fixed using the protocol described below.

[2] = tested on: MRX condensates; assay type: biochemical, Saccharomyces cerevisiae; details: 500 mM NaCl, brief exposure
Procedure: Experiments were performed without PEG. b, d Effect of DNase I, in the absence of PEG, on (b) Mre11 (n = 9 (no treatment) and 11 (DNase I)) and (d) MRX (n = 9 (no treatment) and 11 (DNase I)) condensates. Condensates were pre-assembled for 20 min with 5.7 nM pUC19 prior to challenge. Quantification represents total foci intensity (green) in a field of view and total number of foci per 1000 µm^2 (magenta). Foci intensity is normalized to the mean intensity of samples with DNA for (a, c) and untreated samples for (b, d). Error bars represent mean ± SD from the indicated (n) fields of view. e, f Effect of the presence of 5% PEG-3350 on (e) Mre11 (n = 12) and (f) MRX (n = 11) condensate formation. Quantification represents total foci intensity (green) in a field of view (normalized to the mean of + PEG images) and total number of foci per 1000 µm^2 (magenta). Error bars represent mean ± SD from the indicated (n) fields of view. g–j Effect of challenge with 5% 1,6-hexanediol and 0.5 M NaCl on (g, h) Mre11 and (i, j) MRX condensates. Condensates were assembled for 20 min prior to challenge and incubated for 15 min and 10 min, respectively, after challenge. […]
(§2) Proteins were diluted to a 10 × stock of their appropriate working concentrations in their respective storage buffers. […] Images were analyzed with ImageJ using a custom-made script. […] Data were analyzed using Graphpad Prism 10.4.0.

[3] = tested on: Mre11 condensates; assay type: biochemical, Saccharomyces cerevisiae; details: 500 mM NaCl, brief exposure
Procedure: Experiments were performed without PEG. b, d Effect of DNase I, in the absence of PEG, on (b) Mre11 (n = 9 (no treatment) and 11 (DNase I)) and (d) MRX (n = 9 (no treatment) and 11 (DNase I)) condensates. Condensates were pre-assembled for 20 min with 5.7 nM pUC19 prior to challenge. Quantification represents total foci intensity (green) in a field of view and total number of foci per 1000 µm^2 (magenta). Foci intensity is normalized to the mean intensity of samples with DNA for (a, c) and untreated samples for (b, d). Error bars represent mean ± SD from the indicated (n) fields of view. e, f Effect of the presence of 5% PEG-3350 on (e) Mre11 (n = 12) and (f) MRX (n = 11) condensate formation. Quantification represents total foci intensity (green) in a field of view (normalized to the mean of + PEG images) and total number of foci per 1000 µm^2 (magenta). Error bars represent mean ± SD from the indicated (n) fields of view. g–j Effect of challenge with 5% 1,6-hexanediol and 0.5 M NaCl on (g, h) Mre11 and (i, j) MRX condensates. […] In the control reaction, an equivalent volume (1/20) of water was added instead of hexanediol. […]
as §2

[4] = tested on: MMS-induced Mre11^myc foci in vegetatively growing yeast; assay: Immunofluorescence of MMS-induced Mre11myc foci, vegetative yeast nuclear spreads; assay type: cell-based, Saccharomyces cerevisiae; details: MMS-treated, no hexanediol
Procedure: as §1
Meiotic cultures were harvested 4 h after transfer to SPM, washed with sterile cold water, and resuspended in 1 M sorbitol, 1 × PBS (pH 7), 10 mM DTT, 0.5 mg/ml zymolyase 20 T, and incubated for 30 mins at 30 °C with gentle shaking. […]
Slides were blocked with 90% FBS, 1 × PBS for 1 h at room temperature in a humid chamber and then incubated with primary antibody (mouse mAb anti-myc, 1:200 (2276S, Cell Signaling Technology), rabbit anti-phospho H2A-S129, 1:200 (ab15083, abcam)) diluted in 3% BSA, 1 × PBS in a humid chamber for 2 h at 37 °C or overnight at 4 °C. […] Images were captured on a Zeiss Axio Observer with a 100 ×/1.4 NA oil immersion objective and were analyzed in ImageJ.

[5] = tested on: supercoiled pUC19 plasmid DNA; assay: In vitro condensation assay of MRX complex (fluorescence microscopy); assay type: biochemical; details: in the presence of plasmid DNA
Procedure: Fig. 1 Mre11 and the MRX complex assemble DNA-dependent condensates in vitro. a, c Effect of the presence of plasmid DNA on condensation of (a) Alexa488-labeled Mre11 (n = 11 and 9 fields of view for reactions without and with DNA, respectively) and (c) eGFP-tagged MRX (n = 11 (- DNA) and 9 ( + DNA)). Experiments were performed without PEG. b, d Effect of DNase I, in the absence of PEG, on (b) Mre11 (n = 9 (no treatment) and 11 (DNase I)) and (d) MRX (n = 9 (no treatment) and 11 (DNase I)) condensates. Condensates were pre-assembled for 20 min with 5.7 nM pUC19 prior to challenge. Quantification represents total foci intensity (green) in a field of view and total number of foci per 1000 µm^2 (magenta). Foci intensity is normalized to the mean intensity of samples with DNA for (a, c) and untreated samples for (b, d). […] Quantification represents total foci intensity (green) in a field of view (normalized to the mean of + PEG images) and total number of foci per 1000 µm^2 (magenta). […]
Fig. 2 The C-terminal IDR of Mre11 is required for condensation. a AlphaFold2 predicted model of Mre11 (AF-P32829-F1-v4). […] Quantification represents total fluorescence intensity (green) in a field of view and total number of foci per 1000 µm^2 (magenta). […]

| Compound | Sensitivity of mre11-ΔC49 mutant (in words) [1] | Sensitivity of mre11-ΔIDR mutant (in words) [1] | other results |
| --- | --- | --- | --- |
| CC[C@@]1(O)C(=O)OCc2c1cc1n(c2=O)Cc2cc3ccccc3nc2-1 [CPT, camptothecin] | resistant | as resistant to MMS or CPT as wild-type cells | – |
| [Cl-].[Na+] [NaCl] | – | – | Effect on MRX foci intensity (in words) [2]: strongly reduced foci intensity; Effect on Mre11 foci intensity (in words) [3]: strongly reduced foci intensity |
| COS(C)(=O)=O [MMS, methylmethanesulfonate] | resistant | as resistant to MMS or CPT as wild-type cells | Percentage of aggregates [4]: 0 |
| MRX: Mre11-Rad50-Xrs2 complex, recombinant from Sf9 cells | – | – | Condensate formation (in words) [5]: form large clusters visible by fluorescence microscopy |

From publication PMC13233820, “Recruitment of Mre11 to recombination sites during meiosis” (Nature Communications, 2026)
